The target in assay [1] is T1, Muscarinic acetylcholine receptor M1 (Homo sapiens, UniProt P11229).
T1 sequence (P11229 whole entry): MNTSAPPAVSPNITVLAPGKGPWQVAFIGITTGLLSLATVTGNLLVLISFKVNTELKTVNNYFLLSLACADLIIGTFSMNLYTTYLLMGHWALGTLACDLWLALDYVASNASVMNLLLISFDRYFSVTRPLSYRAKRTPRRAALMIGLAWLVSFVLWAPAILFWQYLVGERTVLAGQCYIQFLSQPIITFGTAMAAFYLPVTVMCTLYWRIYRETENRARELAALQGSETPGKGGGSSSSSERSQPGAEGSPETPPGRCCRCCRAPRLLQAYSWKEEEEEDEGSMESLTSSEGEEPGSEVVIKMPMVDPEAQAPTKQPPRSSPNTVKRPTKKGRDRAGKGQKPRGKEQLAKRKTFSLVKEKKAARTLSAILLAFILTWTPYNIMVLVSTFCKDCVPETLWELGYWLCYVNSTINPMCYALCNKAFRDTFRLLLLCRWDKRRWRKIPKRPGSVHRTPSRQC
Description: Displacement of [3H]NMS from human M1 receptor expressed in CHO cells by microplate scintillation counting based radioligand binding assay. The class given is cell-based. (In general: Displacement assays read how much labelled ligand stays bound in the presence of the test substance.)

Assay [2] concerns the target Muscarinic acetylcholine receptor M3 (Homo sapiens, UniProt P20309). Description: Displacement of [3H]NMS from human M3 receptor expressed in CHO cells by microplate scintillation counting based radioligand binding assay. The class given is cell-based.
Assay [3] has as its target T2, Muscarinic acetylcholine receptor M4 (Homo sapiens, UniProt P08173).
T2 sequence (P08173 whole entry): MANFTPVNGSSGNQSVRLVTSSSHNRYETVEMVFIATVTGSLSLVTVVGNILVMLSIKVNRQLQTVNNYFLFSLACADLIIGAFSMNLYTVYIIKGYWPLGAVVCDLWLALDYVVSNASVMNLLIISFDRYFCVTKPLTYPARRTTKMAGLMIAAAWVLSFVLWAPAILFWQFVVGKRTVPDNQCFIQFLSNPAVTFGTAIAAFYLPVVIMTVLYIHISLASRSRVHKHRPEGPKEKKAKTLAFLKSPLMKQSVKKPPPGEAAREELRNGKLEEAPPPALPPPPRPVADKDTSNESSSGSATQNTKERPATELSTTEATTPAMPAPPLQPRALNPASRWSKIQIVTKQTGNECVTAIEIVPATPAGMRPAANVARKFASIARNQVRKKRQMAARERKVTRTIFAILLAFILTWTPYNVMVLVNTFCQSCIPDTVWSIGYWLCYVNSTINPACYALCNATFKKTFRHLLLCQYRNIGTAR
Put plainly: Displacement of [3H]NMS from human M4 receptor expressed in CHO cells by microplate scintillation counting based radioligand binding assay. The class given is cell-based.

Assay [4] addresses T3, Muscarinic acetylcholine receptor M5 (Homo sapiens, UniProt P08912).
T3 sequence (P08912 whole entry): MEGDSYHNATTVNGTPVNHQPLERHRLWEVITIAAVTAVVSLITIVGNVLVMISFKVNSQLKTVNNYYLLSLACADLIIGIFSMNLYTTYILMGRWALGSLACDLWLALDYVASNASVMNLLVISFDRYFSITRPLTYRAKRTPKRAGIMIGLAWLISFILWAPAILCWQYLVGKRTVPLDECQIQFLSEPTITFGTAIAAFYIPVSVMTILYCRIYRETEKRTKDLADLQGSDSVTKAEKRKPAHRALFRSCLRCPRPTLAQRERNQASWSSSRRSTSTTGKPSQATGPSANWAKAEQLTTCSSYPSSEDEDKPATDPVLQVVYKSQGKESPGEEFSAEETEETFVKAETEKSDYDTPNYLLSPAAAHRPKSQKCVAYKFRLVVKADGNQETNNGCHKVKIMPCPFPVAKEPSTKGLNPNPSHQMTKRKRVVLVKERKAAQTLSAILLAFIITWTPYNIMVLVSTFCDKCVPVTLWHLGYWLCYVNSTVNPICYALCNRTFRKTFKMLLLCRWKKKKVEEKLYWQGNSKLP
Put plainly: Displacement of [3H]NMS from human M5 receptor expressed in CHO cells by microplate scintillation counting based radioligand binding assay. It counts as cell-based.

Assay [5] has as its target T4, Muscarinic acetylcholine receptor M1 (Homo sapiens) (UniProt P11229).
T4 sequence (whole entry): T1 sequence (P11229 whole entry)
Put plainly: Agonist activity at human M1 receptor expressed in HEK293T cells by BRET based Gq protein engagement assay relative carbachol. The conditions noted are these: HEK-293T. It counts as cell-based. For orientation: BRET reads energy transfer from a luciferase to a nearby fluorophore.

The target in assay [6] is T1, Muscarinic acetylcholine receptor M1. Put plainly: Positive modulatory activity at human M1 receptor expressed in HEK293T cells assessed as effect on carbachol-induced response by BRET based Gq protein engagement assay. The class given is cell-based, HEK-293T.
For assay [7] the target is unchanged. Description: Agonist activity at human M1 receptor expressed in HEK293T cells by BRET based Gq protein activation assay. It counts as cell-based, HEK-293T.
Assay [8] addresses T4, Muscarinic acetylcholine receptor M1 (Homo sapiens). Description: Agonist activity at human M1 receptor expressed in HEK293T cells by BRET based Gq protein activation assay relative to carbachol. The class given is cell-based. The settings on record: HEK-293T.
Assay [9] has the same target. Put plainly: Positive modulatory activity at human M1 receptor expressed in HEK293T cells assessed as effect on carbachol-induced response by BRET based Gq protein activation assay relative to untreated control. It counts as cell-based. The conditions noted are these: HEK-293T.
Assay [10] concerns the target T1, Muscarinic acetylcholine receptor M1. Put plainly: Agonist activity at human M1 receptor expressed in HEK293T cells by BRET based beta-arrestin engagement assay.
The target in assay [11] is T2, Muscarinic acetylcholine receptor M4. Put plainly: Antagonist activity at human M4 receptor expressed in HEK293T cells assessed as inhibition of carbachol-induced response by BRET based Gq protein engagement assay. The class given is cell-based, HEK-293T.
The target of assay [12] is T5, Muscarinic acetylcholine receptor M4 (Homo sapiens) (UniProt P08173).
T5 sequence (whole entry): T2 sequence (P08173 whole entry)
Put plainly: Antagonist activity at human M4 receptor expressed in HEK293T cells assessed as inhibition of carbachol-induced response by BRET based Gq protein engagement assay relative to untreated control. It counts as cell-based. The settings on record: HEK-293T.

In assay [13] the target is T2, Muscarinic acetylcholine receptor M4. Description: Antagonist activity at human M4 receptor expressed in HEK293T cells assessed as inhibition of xanomeline-induced response by BRET based Gq protein engagement assay. The class given is cell-based, HEK-293T.
The target in assay [14] is T5, Muscarinic acetylcholine receptor M4 (Homo sapiens). Description: Antagonist activity at human M4 receptor expressed in HEK293T cells assessed as inhibition of xanomeline-induced response by BRET based Gq protein engagement assay relative to untreated control. It counts as cell-based. The conditions noted are these: HEK-293T.
The target of assay [15] is T2, Muscarinic acetylcholine receptor M4. Description: Agonist activity at human M4 receptor expressed in HEK293T cells by BRET based Gq protein activation assay.
Assay [16] has as its target T1, Muscarinic acetylcholine receptor M1.
For assay [17] the target is unchanged. The source holds these as a separate data set.
Assay [18] has the same target. This is another data set of the same source.
In assay [19] the target is T2, Muscarinic acetylcholine receptor M4.
In assay [20] the target is T5, Muscarinic acetylcholine receptor M4 (Homo sapiens). Put plainly: Agonist activity at human M4 receptor expressed in HEK293T cells by BRET based Gi protein activation assay relative to carbachol. The conditions noted are these: HEK-293T.
Assay [21] shares this target. Put plainly: Antagonist activity at human M4 receptor expressed in HEK293T cells assessed as inhibition of carbachol-induced response by BRET based Gi protein activation assay relative to untreated control. The settings on record: HEK-293T.

Muscarinic acetylcholine receptor M3, sequence (P20309 whole entry): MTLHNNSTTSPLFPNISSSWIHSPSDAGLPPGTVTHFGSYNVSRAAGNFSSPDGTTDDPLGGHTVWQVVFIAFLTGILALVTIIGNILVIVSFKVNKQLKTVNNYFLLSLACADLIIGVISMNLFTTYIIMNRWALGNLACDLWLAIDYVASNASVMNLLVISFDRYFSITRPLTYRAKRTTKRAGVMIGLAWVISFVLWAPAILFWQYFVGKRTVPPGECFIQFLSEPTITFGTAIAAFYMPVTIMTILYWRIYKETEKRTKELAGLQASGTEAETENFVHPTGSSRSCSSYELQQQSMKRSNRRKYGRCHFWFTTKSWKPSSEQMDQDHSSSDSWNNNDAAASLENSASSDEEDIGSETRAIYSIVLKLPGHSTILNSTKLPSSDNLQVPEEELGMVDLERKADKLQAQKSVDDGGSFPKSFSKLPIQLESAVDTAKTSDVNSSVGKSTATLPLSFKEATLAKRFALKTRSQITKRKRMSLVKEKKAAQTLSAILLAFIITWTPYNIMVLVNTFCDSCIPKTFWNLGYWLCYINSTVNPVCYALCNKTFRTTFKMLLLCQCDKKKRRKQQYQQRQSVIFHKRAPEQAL

As a reminder, the Ki is a dissociation constant, usually derived from enzyme kinetics or from competition with a known ligand. A higher Ki goes with a looser hold on the target. A word on the Emax: it is the size of the effect at its maximum, as opposed to the concentration needed. What is called EC50 is the concentration needed to bring the measured effect to its halfway point. A word on the IC50: it is the concentration at which inhibition is half-maximal. As for `CCCCC1CCN(CCCN2C(=O)CCc3ccccc32)CC1`, the Ki in [1] was 316 nM; in assay [2] it was 1200 nM; in [3], 209 nM; in [4], 5370 nM. The Emax in [5] stood at 81%; in [8], 57%; in assay [9], 79%; in assay [20] it was 46%. Moreover, the EC50 is 34.7 nM in [6]; 102 nM in [7]; 832 nM in assay [10]; 275 nM in [15]; 120 nM in [16]; 263 nM in assay [17]. The IC50 is 2240 nM in assay [11], 120000 nM in assay [13], 1580 nM in [18] and 47900 nM in [19]. Further, the Imax in assay [12] is 86%; in assay [14], 78%; in assay [21], 55%.

These data come from ChEMBL document CHEMBL3351363 (J Med Chem, 2014).
